One block for each compound: values may come before it.
Tests used:
[1] = test system: STHdh^Q111/111 cells; experiment: Toxicity assay: rescue from tunicamycin (ER stress)-induced apoptosis, FACS with propidium iodide (sub-G0/G1); assay type: cell-based, murine; conditions: for rescue from ER stress-induced apoptosis: 0–100 μM, 48 h Tun exposure (Fig. 1C)
Procedure: (§1) STHdh^Q111/111 cells (used before[13]) or PERK+/+ or PERK−/− MEFs (kindly provided by David Ron, Univ. Cambridge) were incubated with Tun (10 μg/ml) for 48 h, which results in ER stress-induced cell death. Cells under the same conditions were incubated for the same times, together with Tun, with increasing concentrations of the different PERK modulators (0–120 μM) and the percent of apoptotic cells was measured by FACS cell cycle progression using propidium iodide (PI), considering the fraction beneath G0/G1. The relative apoptosis rate was calculated to be able to compare between compounds and experiments, where for each concentration curve the percent of apoptotic cells was considered 100 at concentration 0 of the PERK modulator, with only Tun. The graphs show the average relative apoptosis rate of at least 3 independent experiments for each compound.
(§2) Cells were washed with PBS and fixed with cold methanol. Before FACS analysis cells were washed with PBS, followed by addition of propidium iodide (PI) solution (10 μg/ml) and analysis by flow cytometry. Cells in sub-G0/G1 were counted as apoptotic/ dead.

[2] = test system: WT MEF cells; experiment: Rescue from tunicamycin-induced apoptosis in WT MEFs; assay type: cell-based; conditions: WT MEFs treated with Tun; read-out: IC50 for inhibition of apoptosis
Procedure: as §1, §2

[3] = test system: PERK−/− MEF cells; experiment: Rescue from tunicamycin-induced apoptosis in PERK−/− MEFs; assay type: cell-based; conditions: Tun
Procedure: as §1, §2

[4] = molecular target: panel of 391 kinases (Homo sapiens, UniProt P37173); experiment: biochemical; assay type: biochemical; conditions: TGFBR2; ATP 1 µM; read-out: Control Compound IC50
[5] = molecular target: T1, PERK (EIF2AK3) (Homo sapiens, UniProt Q9NZJ5); experiment: In vitro HotSpot kinase assay on isolated PERK; assay type: biochemical; conditions: HotSpot Kinase Assay
T1 construct: GST; purchased Life technologies, Carlsbad, CA; host or cells: insect cells
T1 sequence (Q9NZJ5 536-1116): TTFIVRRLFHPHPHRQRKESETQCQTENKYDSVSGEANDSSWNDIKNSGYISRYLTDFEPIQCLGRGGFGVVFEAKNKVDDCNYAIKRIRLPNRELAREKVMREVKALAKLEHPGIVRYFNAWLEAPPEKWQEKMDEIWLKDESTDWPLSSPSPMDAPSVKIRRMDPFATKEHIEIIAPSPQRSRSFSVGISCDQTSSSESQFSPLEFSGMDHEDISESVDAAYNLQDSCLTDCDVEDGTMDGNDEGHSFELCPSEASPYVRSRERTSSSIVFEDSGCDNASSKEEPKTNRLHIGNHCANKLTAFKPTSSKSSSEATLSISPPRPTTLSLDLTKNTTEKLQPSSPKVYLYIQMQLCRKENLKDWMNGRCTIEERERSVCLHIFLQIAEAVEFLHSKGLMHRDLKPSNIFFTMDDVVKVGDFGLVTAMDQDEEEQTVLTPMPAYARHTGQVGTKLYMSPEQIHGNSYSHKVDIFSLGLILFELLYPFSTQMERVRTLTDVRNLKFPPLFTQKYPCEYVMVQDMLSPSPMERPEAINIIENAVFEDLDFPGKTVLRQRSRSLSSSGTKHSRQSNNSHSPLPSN
Procedure: In vitro kinase assays with purified components and full kinase panel analysis was done at Reaction Biology Corp. (Malvern, PA, USA) using the HotSpot Kinase Assay. Reactions were performed for 20 min at room temp. using ^33P-ATP (Specific activity 10 μCi/μl) with 1 μM total ATP, 20 μM substrate and kinases in the nanomolar range in 20 mM Hepes (pH 7.5), 10 mM MgCl2, 1 mM EGTA, 0.02% Brij35, 0.02 mg/ml BSA, 0.1 mM Na3VO4, 2 mM DTT, 1% DMSO and other required factors depending on the assayed kinase.

[6] = molecular target: panel of 391 kinases (Homo sapiens, UniProt Q9BYP7); experiment: biochemical; assay type: biochemical; conditions: WNK3; ATP 1 µM; read-out: Control Compound IC50
[7] = test system: STHdh^Q111/111 cells; experiment: Apoptosis of STHdh^Q111/111 cells with the NRF2 inhibitor ML385; assay type: cell-based, murine
Procedure: as §1
Suppl. Fig. S5. NRF2 activation but not involvement in cell protection by MK-28. A)
Scheme of NRF2 activation by PERK. B) qPCR of HMOX1, a downstream target of NR F2.
Medians +- interquartile range of 3 independent experiments . P values of STHdhQ7/7 MK 5µM […]
presence of Tun and the indicated concentrations of MK-28, plus increasing concentrations of the NRF2 inhibitor ML385. Average of 3 independent experiments +-SD. D) Apoptosis of STHdhQ111/111 cells treated only with increasing concentrations of ML385. […]

[8] = test system: PERK-P; experiment: PERK phosphorylation shift by immunoblot in MEF cells; assay type: cell-based; conditions: 3 hours, Thap 2 μg/ml

Compound: CCN(CC)CCC(=O)N1N=C(c2c(-c3ccccc3)c3cc(Br)ccc3[nH]c2=O)CC1c1ccc(Br)cc1 (stereo not shown) [CCT020312, reference compound]
- IC50 ([1]; STHdh^Q111/111 cells treated with Tun, read-out: IC50 for inhibition of apoptosis): 32.4 µM
- protection from apoptosis at lower concentrations ([1]; below 10 μM, Tun): failed to be protective
- IC50 [2]: 11.1 µM
- protection from ER stress-induced cell death [3]: failed to protect

Compound: c1ccc2c(-c3cnn4cc(-c5ccc(N6CCNCC6)cc5)cnc34)ccnc2c1 [LDN193189]
- IC50 [4]: 0.0896 µM

Compound: COc1cc(/C=N\N(C)c2nc(-c3ccccc3)cc(-c3ccc(Br)cc3)n2)ccc1O [A4, reference compound]
- reduction of apoptosis ([1]; 5 μM, 48 h Tun exposure): no significant effect
- effect on activity of isolated PERK [5]: activated PERK (EIF2AK3) in the nanomolar range, although to a small extent

Compound: COc1cc(/C=N\N(C)c2nc(-c3ccccc3)cc(-c3ccccc3)n2)cc(OC)c1 [MK26]
- rescue from ER stress-induced apoptosis [1]: inactive

- IC50 [6]: 1.91 µM
Compound: O=C1NC(=O)c2c1c(-c1ccccc1Cl)cc1[nH]c3ccc(O)cc3c21 [Wee-1 Inhibitor]

Compound: COc1ccc(/C=N\N(C)c2nc(-c3ccccc3)cc(-c3ccccc3)n2)cc1O [MK-29]
- rescue from ER stress-induced apoptosis [1]: inactive

Compound: Cc1ccccc1C(=O)N1CCc2cc(-c3nc(NC(=O)Cc4ccc5c(c4)OCO5)sc3C)ccc21 [ML385]
- reversal of the cytoprotective effect of MK-28 ([7]; Tun + MK-28 + increasing ML385): did not reverse to any significant extent
- toxicity (apoptosis) of ML385 ([7]; increasing concentrations): caused some toxicity

Compound: C/C=C(/C)C(=O)O[C@H]1C(C)=C2[C@H]([C@@H]1OC(=O)CCCCCCC)[C@@](C)(OC(C)=O)C[C@H](OC(=O)CCC)[C@@]1(O)[C@H]2OC(=O)[C@@]1(C)O [Thap, thapsigargin, reference compound]
- PERK migration shift (PERK-P) [8]: shift of PERK consistent with its phosphorylation

Reference: paper PMC7181660, “A novel specific PERK activator reduces toxicity and extends survival in Huntington's disease models” (Scientific Reports, 2020)
